Experiments:
heart wounds = conditions: 500 ngs continuously, slow release pellet; cited from earlier work
excisional wounds = conditions: cited from earlier work
[1] = tested on: wounds such as lacerations; assay: Lacerations treated with continuous topical T-3 or TriAc; type: in vivo, human; conditions: continuous topical application, in approximately three days
[2] = tested on: burned and blistered area of the right thigh; assay: Topical T-3 in Silvadene ointment on a burn
burns = conditions: small quantities in drinking water, excision and grafting, after 5 weeks; cited from earlier work
dermis and epidermis = conditions: topical application, not intraperitoneal; cited from earlier work
TSH = conditions: topically applied, humans; cited from earlier work

| signs of inflammation [1] | Compound | healing of heart wounds (heart wounds) | healing of excisional non thermal wounds (excisional wounds; eurythroid mouse, daily) | wound healing (excisional wounds; intraperitoneal, hypothyroid mice) | cellular debris and signs of inflammation ([2]; T-3 1 mg in 30 ml Silvadene ointment, daily for two weeks) | appearance of the treated area ([2]; after 6 weeks) | healing rate of burns (burns) | growth of the dermis and epidermis (dermis and epidermis) | effect on TSH levels or other thyroid hormone function tests (TSH) |
| --- | --- | --- | --- | --- | --- | --- | --- | --- | --- |
| increased signs of inflammation | N[C@@H](Cc1cc(I)c(Oc2ccc(O)c(I)c2)c(I)c1)C(=O)O [T-3, 3,5,3′-triiodothyronine] | decreased healing of heart wounds | accelerates the healing | improved wound healing | more cellular debris and signs of inflammation | less reddened areas and had less discolored skin | no change in the healing rate | affect the growth of the dermis and epidermis |  |
|  | N[C@@H](Cc1cc(I)c(Oc2cc(I)c(O)c(I)c2)c(I)c1)C(=O)O [T-4, thyroxine] |  |  |  |  |  |  |  | no effect on TSH levels |
